Assay results: patent US20050102708A1, “Animal model simulating neurologic disease” (priority 2003, published 2005)

Columns and labels:
[1] = tested on: Hyperphosphorylated Tau protein; experiment: ELISA of hyperphosphorylated Tau protein in CSF; format: in vivo, rat; conditions: rats, four week infusion into the left ventricle
Description: (§1) Surgical procedure: Anesthetized rats (equitesin, 3 ml/kg, i.p.) were placed on a stereotaxic frame. Using the electrode micromanipulator, the outlet of an osmotic micropump (Durect Corp., Cupertino, Calif.) was implanted into the left ventricle following the coordinates D=3.4 mm, L=1.4 mm and AP=0.92 mm prior to the bregma. The tank of the osmotic pump was implanted in a subcutaneous pocket in the midscapular area of the back of the rat. After surgery rats were put on a heating blanket for recovery. During the whole procedure, the body temperature was monitored and kept stable at 37° C.
Perfusion: Rats were divided into six groups regarding the composition of the solution contained in the osmotic micropump tank, as provided in Table 1. Group I served as the control group and received only artificial cerebrospinal fluid (“CSF”).
ELISA: Hyperphosphorylated Tau protein was measured in the CSF using the Elisa kit INNOTEST™ (Innogenetics, Belgium).

[2] = tested on: Long-Evans male rats; experiment: Morris watermaze memory retention test; format: in vivo, rat; conditions: four week infusion into the left ventricle, tested at end of perfusion period
Description: Inducing a Neurologic Disease in a Non-Human Animal. Animals: Long-Evans male rats weighing 300-325 grams were housed following a natural day-night cycle with food and water ad libitum.
Morris watermaze protocol: Before the surgery, the rats were trained on a standard Morris spatial navigation task in a black water tank (200 cm diameter). The water was rendered opaque by water-miscible non-toxic white paint (Crayola Inc.). The rats were placed in four different, randomly assigned, start positions and trained to find an invisible platform (20 cm diameter) at a fixed position in the middle of the water tank. The water temperature was about 24° C. A trial lasted until a rat found the platform or until 120 seconds elapsed. […] Rats were trained for four consecutive days, four trials a day, with 30 minutes between subsequent trials. Surgery procedures were performed on the fifth day. Rats were tested again for memory retention at the end of the four weeks-perfusion period.
as §1, with “The tank of the osmotic pump was implanted in a subcutaneous pocket in the midscapular area of the back of the rat. After surgery rats were put on a heating blanket for recovery.” left out, “C. […]” for “C.”

## β42-amyloid peptide [Aβ42]
[1]
  phosphorylated Tau protein in the CSF: not sufficient to induce
[2]
  memory impairment / latency to retrieve the platform in the Morris watermaze test: not sufficient to induce memory impairment
